A short description of one data set: Lethal dose was evaluated against flea. To be noted: pulicinae.
`C=C(C)[C@H]1C(=O)c2c3c(cc4c5c(n1c24)[C@@]1(C)[C@@H](CC[C@@H]2[C@]1(C)CC[C@]1(O)O[C@H](/C=C(\C)C(=O)O)C[C@@]21C)C5)C1=CC(C)(C)OC(C)(C)[C@H]1[C@@H]3O` [NODULISPORIC ACID A1] had an LD90 of 5 p.p.m. Still for that read-out and setting: the same measure for `C=C(C)[C@H]1Cc2c3c(cc4c5c(n1c24)[C@@]1(C)[C@@H](CC[C@H]2[C@](C)(/C=C/C=C(\C)C(=O)OC)[C@@H](O)CC[C@@]21C)C5)C1=CC(C)(C)OC(C)(C)[C@H]1[C@@H]3O`: 100 p.p.m; for `C=C(C)[C@H]1C(=O)c2c3c(cc4c5c(n1c24)[C@@]1(C)C(CC[C@H]2[C@](C)(/C=C/C=C(\C)C(=O)O)[C@@H](O)CC[C@@]21C)C5)C1=CC(C)(C)OC(C)(C)C1[C@@H]3O` (stereo partly specified) [NOD ACID A]: 1 p.p.m. Same read-out and setting: the same measure for IVERMECTIN: 10 p.p.m; for `C=C(C)[C@H]1C(=O)c2c3c(cc4c5c(n1c24)[C@@]1(C)[C@@H](CC[C@@H]2[C@]1(C)CC[C@]1(O)O[C@H](C(O)C(C)C(=O)O)C[C@@]21C)C5)C1=CC(C)(C)OC(C)(C)[C@H]1[C@@H]3O` (stereo partly specified) [NODULISPORIC ACID A2]: 10 p.p.m; for `C=C(C)[C@H]1Cc2c3c(cc4c5c(n1c24)[C@@]1(C)[C@@H](CC[C@H]2[C@](C)(/C=C/C=C(\C)C(=O)[O-])[C@@H](O)CC[C@@]21C)C5)C1=CC(C)(C)OC(C)(C)[C@H]1[C@@H]3O.[Na+]`: 100 p.p.m. Still for that read-out and setting: the same measure for `C=C(C)[C@H]1C(=O)c2c3c(cc4c5c(n1c24)[C@@]1(C)[C@@H](CC[C@H]2[C@](C)(/C=C/C=C(\C)C(=O)OC)[C@@H](O)CC[C@@]21C)C5)C1=CC(C)(C)OC(C)(C)[C@H]1[C@@H]3O`: 10 p.p.m.

A further data set in a line: Lethal dose was evaluated against flea; NA means not active at 100 ppm. It is filed as ADME. To be noted: pulicinae.
For the compound `C=C(C)[C@H]1Cc2c3c(cc4c5c(n1c24)[C@@]1(C)[C@@H](CC[C@@H]2[C@]1(C)CC[C@]1(O)O[C@H](/C=C(\C)C(=O)[O-])C[C@@]21C)C5)C1=CC(C)(C)OC(C)(C)[C@H]1[C@@H]3O.[Na+]`, the LD90 result was “Not Active”. Still for that read-out and setting: the same measure for `C=C(C)[C@H]1Cc2c3c(cc4c5c(n1c24)[C@@]1(C)[C@@H](CC[C@@H]2[C@]1(C)CC[C@]1(O)O[C@H](C(O)C(C)C(=O)[O-])C[C@@]21C)C5)C1=CC(C)(C)OC(C)(C)[C@H]1[C@@H]3O.[Na+]` (stereo partly specified): “Not Active”; for `C=C(C)[C@H]1Cc2c3c(cc4c2N1C(=O)[C@@]1(C)[C@@H](CC[C@H]2[C@](C)(/C=C/C=C(\C)C(=O)OC)[C@@H](O)CC[C@@]21C)CC4=O)C1=CC(C)(C)OC(C)(C)[C@H]1[C@@H]3O`: “Not Active”.

A short description of another data set: Lethal dose was evaluated against flea; partial activity. The following applies: pulicinae. It is filed as ADME.
The compound `C=C(C)[C@H]1Cc2c3c(cc4c5c(n1c24)[C@@]1(C)[C@@H](CC[C@H]2[C@](C)(/C=C/C=C(\C)C(=O)OC)[C@@H](O)CC[C@@]21C)C5)C1=CC(C)(C)OC(C)(C)[C@H]1[C@@H]3O` came in with an LD90 of 10 p.p.m.

Values taken from ChEMBL document CHEMBL1134911, “Nodulisporic acid B, B1, and B2: a series of 1'-deoxy-nodulisporic acids from Nodulisporium sp” (Bioorg Med Chem Lett, 2002).
